Key:
[1] = tested on: fibres innervating the cornea (polymodal nociceptive fibres); assay: Extracellular recording of corneal nerve fibres in cats with a corneal wound, before and after topical drug application; type: in vivo, cat; conditions: anaesthetized cats 7 and 15 days after circular corneal wound; for responses evoked by pulses of CO2 of 30 s duration: 98% CO2 on receptor field around the lesion, before vs after topical application (same concentration ranges); for spontaneous activity of the fibres innervating the zones around the lesion: before vs after topical application (carbamazepine 0.001-0.01%, phenyloin 0.001-0.1%, mexiletine 0.001-0.1%, lidocaine 0.0005-0.01%, tocaidine 0.001-0.01%)
Procedure: Tests were carried out on fifteen adult cats of both sexes, anaesthetized with pentobarbital sodium (Nembutal, 40 mg/kg, i.p.). The cornea of both eyes was anaesthetized topically by instillation of tetracaine 0.1% and oxybuprocaine hydrochloride 0.4%.
A circular wound was made in the centre of the cornea with a 5 mm dia. trepan which penetrated 40-50 μm below the Bowman membrane. The animals were treated with topical and systemic antibiotics, leaving them to recover for 1-2 weeks.
The recording tests were carried out 7 and 15 days after surgery. The animals were anaesthetized with Nembutal (40 mg/kg, i.p.) and were maintained in a state of areflexia during the experiment by intravenous infusion of dilute Nembutal (5 mg/kg) in the saphenous vein. The animals breathed spontaneously through a tracheal cannula. Respiratory CO2, rectal temperature and arterial pressure were monitored continuously and were kept stable. The animals were sacrificed with an overdose of Nembutal at the end of the experiment.
Extracellular recording was made of nerve fibres isolated from the cornea, obtained from the ciliary nerves of the eye, using silver/silver chloride electrodes and conventional electrophysiological equipment, as described previously (cf. Belmonte, C., Gallar, J., Pozo, M. A., Rebollo, I. (1991) Excitation by irritant chemical substances of sensory afferent units in the cat's cornea. J. Physiol. 437: 709-725).
The corneal sensory fibres were identified by their response to mild stimulation with a wet brush. The mechanical threshold was measured with a Cochet-Bonnet aesthesiometer with a No. 12 filament (0.1-1.9 mN) and with calibrated von Frey hairs (0.002-2.0 N). The receptor fields were mapped with a suprathreshold force hair. Sensitivity to chemical stimuli was investigated by applying a pulse of gas containing 98% CO2 at a flow rate of 80 ml/min on the receptor field for 30 s.
The conduction velocity was measured by observing the latency to electric shocks (0.1-0.5 ms, 0.5-3.0 mA) applied on the receptor field with a pair of silver electrodes 3-5 mm apart. The conduction distance was estimated with a silk thread of 0.8 G positioned on the path of the nerve.
The nerve discharges and the stimulation pulses were recorded on an FM magnetic tape recorder for off-line computer analysis with suitable software (CED 1401plus and Spike2 for Windows). The spontaneous activity (average discharge frequency in pulses per second) and the changes in discharge caused by the various stimuli were measured.
The fibres were classified as peripheral and central according to the localization of their receptor field. […] Depending on the localization of the receptor field the fibres were classified as far from the wound or close to or bordering on the wound. The control data were obtained from intact corneas.
The response of the polymodal nociceptive fibres to chemical stimulation was investigated in the fibres whose receptor field touched the damaged area and in those whose receptor field was outside of and far from the lesion. The spontaneous activity and the discharge of the fibres in response to stimulation with CO2 were measured before and after topical application of carbamazepine (0.001-0.01%), phenyloin (5,5-diphenylhydantoin) (0.001-0.1%), mexiletine (0.001-0.1%), lidocaine (0.0005-0.01%) and tocaidine (0.001-0.01%).

[2] = tested on: sensations of ocular dryness that appear after photorefractive surgery of the LASIK type; assay: Clinical study of topical carbamazepine versus placebo on ocular dryness after LASIK surgery; type: in vivo, human; conditions: ophthalmic solution at 0.01%, one drop in the operated eye twice a day for 14 days after LASIK
Procedure: A clinical study was carried out for comparing the attenuating effect produced by the topical administration of carbamazepine and of a placebo on the sensations of ocular dryness that appear after photorefractive surgery of the LASIK type. The study included 124 subjects, men and women in the age range 21-45 years, who underwent routine, elective, unilateral LASIK surgery for correction of myopia. The carbamazepine was administered in ophthalmic solution at 0.01%. After surgery, the subjects received one drop of the study medication in the operated eye, twice a day for 14 consecutive days. Postoperative examinations were carried out on days 1, 3, 7 and 14. The efficacy of the treatment was assessed by measuring the sensation of ocular dryness, pain intensity, and the overall analgesic efficacy, employing independent visual-analogy scales. The symptoms of eye inflammation, burning/stinging sensations, lacrimation etc. were also recorded.

Row | Structure (SMILES) | responses evoked by pulses of CO2 of 30 s duration [1] | spontaneous activity of the fibres innervating the zones around the lesion [1] | incidence of symptoms of dryness throughout the day [2] | incidence of the symptoms of ocular dryness ([2]; statistically significant)
1 | Cc1cccc(C)c1OCC(C)N (stereo not drawn) [mexiletine] | dose-dependent decrease | dose-dependent decrease |  | 
2 | NC(=O)N1c2ccccc2C=Cc2ccccc21 [carbamazepine] | dose-dependent decrease | dose-dependent decrease | significantly lower | more reduced incidence
3 | CCN(CC)CC(=O)Nc1c(C)cccc1C [lidocaine] | dose-dependent decrease | dose-dependent decrease |  | 
4 | O=C1NC(=O)C(c2ccccc2)(c2ccccc2)N1 [phenyloin, 5,5-diphenylhydantoin] | dose-dependent decrease | dose-dependent decrease |  | 
5 | Cc1cccc(C)c1NC(=O)C(C)N (stereo not drawn) [tocaidine] | dose-dependent decrease | dose-dependent decrease |  | 

From patent publication US20070135412A1, “Compounds for the treatment of ocular dryness caused by photorefractive surgery” (priority 2003, published 2007)
